Test system: NOD mice
Assay: Diabetes-free survival of NOD mice (Kaplan-Meier analysis, log-rank test)
Type: in vivo
Conditions: two i.p. treatments, 2 weeks between doses, 50 μg per mouse
Description: With continued reference to FIG. 1, as another non-limiting example, administration 116 of composition of the engineered virus-based nanoparticle for a treatment of an autoimmune disease may be done to nonobese diabetic (NOD) mice. In another non-limiting example, administration 116 of composition of the engineered virus-based nanoparticle for a treatment of an autoimmune disease may be done to any animal disclosed in this disclosure, such as but not limited to a human. Four-week-old female NOD mice may be obtained from Charles River Laboratories and may be housed under specific pathogen-free conditions in the animal facility at the University of Perugia, with ad libitum access to water and food. NOD mice may be randomly subdivided into four groups. In group 1 (n=18), CPMV·p524opt [50 μg per mouse, resuspended in 100 μl of phosphate-buffered saline (PBS)] may be injected twice intraperitoneally, with 2 weeks between doses. […] Mice may be monitored for the appearance of clinical signs of diabetes and may be euthanized when the disease was confirmed by glucosuria. […]
With continued reference to FIG. 1, in some embodiments, processor 104 may determine critical administration 124 as a function of a statistical comparison between administration groups 132. […] As a non-limiting example, a Kaplan-Meier analysis may be calculated using the following formula: […]

p524opt: p524 sequence adjusted to a pI of 8.59 (SEQ ID NO. 2), synthetic peptide given with IFA (DSRLSKVAPVIKARMMED)
protection from the onset of diabetes (in words): no protective effect

— patent US12527849B2, “Apparatus for determining administration form of a composition of an engineered virus-based nanoparticle for a treatment of an autoimmune condition” (Diamante Srl, priority 2021, dated 2026)
